Where two headings read alike, the source gives them in different places.

How the values of series [1] were obtained:
Thus, the present inventors performed an additional screening, in which different compositions of harmine were manufactured and their solubility in water was examined.
To this end, in a first experiment 1 g of harmine freebase was added to […] of dH2O to yield a final concentration of 20% (w/w). Then, the acids mentioned above were individually added to the solution in different molar rations (e.g. 1:1 or 2:1) and it was examined, whether the acids can solubilize harmine freebase by protonation or complex formation.

The nature of series [2]: Blood plasma profiles of harmine and harmol in healthy volunteers. The format is in vivo, Human. The following applies: ~3.5 mg/kg.
Series [3] in a line: Polymorph and salt screening: stability and evaluation of solid state forms. The format is physicochemical. The text has this:
The form scNF1 was also created in the course of cooling crystallizations in water/acetone (70/30), (70/30), water/dioxane water/THF (70/30) and water/acetonitrile (70/30). In addition, the form scNF1 was created by gas diffusion crystallizations of water/1,4-dioxane, water/2-propanol and water/acetonitrile. In long-term slurries, scNF1 was successfully produced with acetone/water (80/20) and acetonitrile/water (90/10). Rapid precipitations of the form scNF1 with the antisolvent water are achieved with the solvents acetone and acetonitrile. Form scNF1 can also be crystallized by evaporating the solvent water.
The form scNF1 is Harmine-HCl dihydrate, as could be determined by means of TGA after static storage (RT/100% RH for 7 days). […] A more detailed characterization of the form scNF1 was not requested by the client.
In the course of the screening performed, 14 new solid-phases were detected by using XRPD.

Series [4] in a line: Solubility testing of harmine salts (gravimetric, temperature-dependent). The class given is physicochemical. The settings on record: for solubility at 48 h: thermodynamic from solid; for Solubility compared with harmine hydrochloride: in words, data in water. Here is the method: Four 250 mL glass jacketed beakers are set up, which are connected with silicone hoses and connected to a Julabo F25 HE thermostat in order to be able to set a constant temperature. In the beakers there is a Pt100 sensor for temperature monitoring, a stopper with a hole that is sealed with play dough and a vial holder with space for four 4 ml vials for a quadruple determination of the solubility. The beakers are located on a strong magnetic stirrer plate so that the temperature is distributed as homogeneously as possible in the liquid medium. Water is used as the medium. The Pt100 sensors and the Julabo are connected to a measuring computer, which controls the Julabo and the temperatures of the Pt100 sensors can be read.
A Sartorius LE26P microbalance with an accuracy of ±0.01 mg is used for the gravimetric determination of the solubility in mass percent.
4 ml vials are filled with 1-2 mL of the respective solvent and equipped with a stirring magnet. The solid to be measured is then added until it is supersaturated. The prepared vials are sealed and placed in the vial holder and equilibrated in the apparatus for 48 hours at the temperature to be examined. After 24 hours, an equilibrium between the solid and liquid phases should have been reached. The liquid phase is removed and transferred to a second vial via a Whatman 20 μm PTFE pre-syringe filter. The tools used, such as the pre-syringe filter, syringe and cannula, are initially cooled or heated to the temperature to be measured. The second vial is first empty, then weighed with the solution and finally evaporated again to ensure constant mass.
At least when the data in water are considered. […] The solubilities are summarized in the table 14 below and in FIGS. 59 and 60: […]

For series [5], the target named is T1, monoamine oxidase B (MAO-B) (Homo sapiens, UniProt P27338).
T1 sequence (P27338 1-520): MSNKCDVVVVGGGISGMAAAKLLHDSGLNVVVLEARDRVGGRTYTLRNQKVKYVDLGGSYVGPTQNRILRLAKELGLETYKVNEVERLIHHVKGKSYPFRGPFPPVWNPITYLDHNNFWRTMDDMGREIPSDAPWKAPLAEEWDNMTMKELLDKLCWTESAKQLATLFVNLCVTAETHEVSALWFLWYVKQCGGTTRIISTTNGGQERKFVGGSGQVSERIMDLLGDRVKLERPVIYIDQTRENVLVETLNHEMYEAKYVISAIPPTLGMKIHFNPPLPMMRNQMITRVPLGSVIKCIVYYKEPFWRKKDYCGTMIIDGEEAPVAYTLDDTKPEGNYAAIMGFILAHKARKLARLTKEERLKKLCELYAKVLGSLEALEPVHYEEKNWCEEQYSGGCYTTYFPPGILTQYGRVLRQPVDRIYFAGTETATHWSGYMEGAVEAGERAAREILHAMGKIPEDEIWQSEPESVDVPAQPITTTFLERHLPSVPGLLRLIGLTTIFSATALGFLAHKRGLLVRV
The following applies: cited from earlier work.

The conditions of series [6]: first pKa value; cited from earlier work.
Series [7] can be described thus: Solubility of harmine in the solvents used in the salt screening. The format is physicochemical. The settings on record: for solubility: organic solvent or mixture. The protocol: The drug substance Harmine was investigated for a salt screening of different salts by crystallization experiments from various solvents and grinding experiments. Solubility experiments were also conducted before starting the salt screening.
In the following table 3, the different solvents used in the salt screening are summarized.

Series [8] concerns the target T2, monoamine oxidase A (MAO-A) (Homo sapiens, UniProt P21397).
T2 sequence (P21397 1-527): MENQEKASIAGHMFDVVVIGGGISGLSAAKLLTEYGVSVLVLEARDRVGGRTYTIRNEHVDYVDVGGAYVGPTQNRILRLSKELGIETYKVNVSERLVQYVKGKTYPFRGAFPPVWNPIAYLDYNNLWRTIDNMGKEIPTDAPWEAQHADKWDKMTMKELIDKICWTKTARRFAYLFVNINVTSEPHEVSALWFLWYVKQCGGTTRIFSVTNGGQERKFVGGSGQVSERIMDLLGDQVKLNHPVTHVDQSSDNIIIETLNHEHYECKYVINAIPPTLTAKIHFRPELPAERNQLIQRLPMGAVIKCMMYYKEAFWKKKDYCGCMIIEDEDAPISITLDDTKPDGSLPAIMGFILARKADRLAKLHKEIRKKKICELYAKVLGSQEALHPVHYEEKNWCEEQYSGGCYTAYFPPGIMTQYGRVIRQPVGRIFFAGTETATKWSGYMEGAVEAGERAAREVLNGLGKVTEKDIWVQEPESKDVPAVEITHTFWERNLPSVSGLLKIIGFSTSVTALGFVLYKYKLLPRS
The following applies: cited from earlier work.

Series [9] can be described thus: pKa and solubility data of harmine and the acids used in the salt screening. The format is physicochemical.
The nature of series [10]: Dose-response study of DMT and harmine in healthy subjects: harmine PK profiles. The settings on record: 180 mg harmine with 90 mg DMT formulated in TIP, ODTs sublingual in 3 dosing intervals every 20 minutes, two subjects.
A short description of series [11]: Solubility of harmine glucuronate for loading of TIP particles. The class given is physicochemical. The text has this: Loading harmine or its salt into TIP particles: FIG. 12 depicts SEM images of unsuccessful TIP loading with Harmine HCl (A; 1% in EtOH) and successful loadings with Harmine HCl (B; 0.1% in EtOH) and Harmine Glucuronate (C; 25% in H2O). As shown, TIP particles can be loaded with Harmine HCl, but only when using very low substance concentrations (0.1%) in an organic solvent such as EtOH. Loading with higher concentrations (1%) leads to external crystallization. Moreover, using H2O as solvent, triggers the rapid precipitation of HRM HCl as freebase, when it is exposed to basic residues within the TIP particles. […] Regarding the latter point, it could be shown that the loading process of the TIP particles is most efficient, when adding highly concentrated drug substance solutions (either in EtOH, H2O or DMSO) to the particles. Loading TIP particles with harmine glucuronate yielded exceptional results. […] It is thought that this property of HRM GLU is caused by its highly amorphous structure, leading to less crystallization compared to HRM HCl (which crystallizes readily as freebase, especially when exposed to basic residues within the TIP particles).
Thus, harmine glucuronate is very practical to handle on a large scale (e.g. up to 1 Kg of HRM GLU can be dissolved in 1 L of water), yields very efficient loading of the TIP particles.

Setting [12] is: ethanol, organic solvent or mixture, EtOH, 25° C., read-out: Solubility at 25° C. (EtOH).
Setting [13] is: ethanol, organic solvent or mixture, EtOH, 37° C., read-out: Solubility at 37° C. (EtOH).
[14] abbreviates: water, H2O, 25° C., read-out: Solubility at 25° C. (H2O).
The mark [15] stands for this setting: water, H2O, 37° C., read-out: Solubility at 37° C. (H20).

For the compound `O=C(O)[C@H](O)[C@@H](O)[C@H](O)[C@H](O)CO` [D-gluconic acid], in series [1], the “Solubility of harmine with the acid” value is reported as “higher than 15%”.

On to `COc1ccc2c(c1)[nH]c1c(C)nccc12.Cl` [Harmine HCl, reference compound], for which, in series [2] (human, plasma, oral administration), the Cmax was ~80 ng/mL. The Harmine plasma level in [2] (oral capsule, 10 healthy volunteers) is ~80 ng/mL. The “Solid form change on static storage” value in [3] (RT/100% RH for 7 days) is on record as “converts to the form scNF1”. The solubility at 48 h in series [4] (setting [12]) stood at 6.79 mg/mL; in [4] (setting [13]), 7.95 mg/mL; in series [4] (setting [14]), 24.9 mg/mL; in series [4] (setting [15]), 53.1 mg/mL.

Consider `COc1ccc2c(c1)[nH]c1c(C)nccc12.O=P(O)(O)O` [Harmine Phosphate], for which the “Evaluation/Remarks: solubility in deuterated solvents” value in series [3] (any deuterated solvent) was “Since the new form does not show sufficient solubility”. Besides, the solubility at 48 h in series [4] (setting [12]) was 0.58 mg/mL; in series [4] (setting [13]), 0.55 mg/mL; in series [4] (setting [14]), 11 mg/mL; in [4] (setting [15]), 12.9 mg/mL. In addition, the “Solubility compared with harmine hydrochloride” value in series [4] (listed as Harmine-Phosphate, Phosphate) is on record as “do not show any better solubility properties”; in [4] (listed as harmine phosphate, Phosphate), “significantly worse”.

With `COc1ccc2c(c1)[nH]c1c(C)nccc12` [Harmine, 7-methoxy-1-methyl-9H-pyrido[3,4-b]-indole], the “Inhibition of MAO-B” value in series [5] is recorded as “does not inhibit”. Moreover, the “pka (½)” value in [6] is 7.45. For the same compound, the solubility is 10 mg/mL in series [7] (2-picoline); 13 mg/mL in series [7] (dimethyl sulfoxide (DMSO)); 33 mg/mL in series [7] (dimethylformamide (DMF), dimethylformamid (DMF), souble); 12 mg/mL in series [7] (methanol, 45 °C); 80 mg/mL in series [7] (1-methyl-2-pyrrolidone (NMP), souble); 40 mg/mL in series [7] (dimethylacetamide, souble). In addition, the solubility in series [7] (tetramethylurea, souble) came out at 40 mg/mL; in [7] (pyridine), 205 mg/mL. In addition, the Solubility in solvent result in [7] (95% methanol | 5% water) is “almost resolved”. For the same compound, in series [7] (dimethyl carbonate, THF, acetonitrile, methanol, acetone, MEK, dichloromethane (25° C. | 45° C.), chloroform, 1,4-dioxane, water, veratrol, p-xylene, sulfolane, benzonitrile, 95% acetonitrile | 5% water (45° C.), 95% acetone | 5% water (45° C.)), the Anti-Solvent practically insoluble is listed as “practically insoluble”. The “Inhibition of MAO-A” value in series [8] is “reversibly inhibits”.

In the case of `COc1ccc2c(c1)[nH]c1c(C)nccc12.Cl.O.O` [Harmine-HCl dihydrate], the “Solid form stability at ambient conditions” value in [3] (after 5 weeks at ambient conditions, powder diffractogram) is “traces of Harmine-HCl were identified”.

Consider `O=C(O)[C@@H](O)[C@H](O)[C@H](O)[C@@H](O)C(=O)O` [mucic acid], for which the “Ability of the acid to solubilize harmine freebase” value in series [1] was “not able to solubilize harmine”.

For the compound D-glucuronic acid, the “Ability of the acid to solubilize harmine freebase” value in [1] (1 g harmine freebase in 5 g dH2O (20% w/w), acid added in molar ratios e.g. 1:1 or 2:1) is recorded as “highest solubility”.

With Harmine Glucuronate, the “ΔpKs value of harmine and glucuronic acid” value in series [9] was 4.27. For the same compound, the “Harmine concentration readily feasible in water” value in [1] (harmine + equimolar glucuronic acid in deionized water, 1 g harmine in 5 mL final volume) is on record as > 20%. The “Bioavailability of harmine (plasma PK profiles)” value in series [10] was “bioavailable”. For the same compound, in series [11] (H2O, RT), the “Solubility in H2O” value is ~45%. The “Amount that can be dissolved in 1 L of water” value in [11] (in 1 L of water) is reported as “up to 1 Kg”. In addition, the “Gravimetric solubility relative to harmin hydrochloride” value in series [4] (25° C.) was “about eight times”. Besides, in series [4] (EtOH, 25° C.), the “Solubility at 25° C. (EtOH)” value turned out to be 4.25 mg/mL. The “Solubility at 37° C. (EtOH)” value in series [4] (EtOH, 37° C.) is given as 7.93 mg/mL. Further, in series [4] (H2O, 25° C.), the “Solubility at 25° C. (H2O)” value is recorded as 405.95 mg/mL. In [4] (H2O, 37° C.), the “Solubility at 37° C. (H20)” value stood at 549.52 mg/mL. Besides, in series [4], the “Solubility compared with harmine hydrochloride” value was “extremely improved solubility”.

As to L(−)-Malic acid, the ΔpKa in series [9] (harmine pKa 7.45 versus first pKa of the acid) amounted to 3.99; in series [9] (harmine pKa 7.45 versus second pKa of the acid) it was 2.35.

The record behind these values is patent US20260007643A1, “HIGHLY SOLUBLE FORMULATIONS OF HARMINE” (Reconnect Labs AG, priority 2022, published 2026).
